Data: patent US20240075087A1, “COMPOSITIONS AND METHODS COMPRISING HEMP EXTRACT FOR THE TREATMENT OF ANIMALS IN NEED” (Portland Technology Holdings LLC, priority 2021, published 2024)

Target: T1, CYP2D15 (Canis lupus familiaris, UniProt Q29473)
T1 construct: P450-specific marker activities in pooled dog liver microsomes; from tissue; host or cells: pooled dog liver microsomes
T1 sequence (Q29473 1-500): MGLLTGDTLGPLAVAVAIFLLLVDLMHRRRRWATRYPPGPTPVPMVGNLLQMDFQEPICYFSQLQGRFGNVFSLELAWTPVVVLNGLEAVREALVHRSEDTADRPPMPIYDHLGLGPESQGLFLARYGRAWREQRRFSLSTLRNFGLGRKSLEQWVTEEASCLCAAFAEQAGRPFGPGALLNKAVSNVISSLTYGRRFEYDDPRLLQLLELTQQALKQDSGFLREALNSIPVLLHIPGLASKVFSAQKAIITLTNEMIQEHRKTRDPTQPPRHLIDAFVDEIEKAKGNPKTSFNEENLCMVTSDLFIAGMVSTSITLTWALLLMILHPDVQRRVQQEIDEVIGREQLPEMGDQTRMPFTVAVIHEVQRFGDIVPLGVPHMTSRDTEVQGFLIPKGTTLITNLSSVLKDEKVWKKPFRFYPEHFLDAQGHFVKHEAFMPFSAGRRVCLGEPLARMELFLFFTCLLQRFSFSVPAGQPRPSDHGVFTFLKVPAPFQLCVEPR
Assay: CYP2D15 activity inhibition in pooled dog liver microsomes
Assay type: in vitro ADME
Conditions: no preincubation vs 20 min preincubation, 10 μM
Protocol: Inhibition potency (i.e. IC50) is determined by measuring the decrement in metabolism of P450-specific marker activities in pooled dog liver microsomes with increasing concentrations of CBD, CBDA, and hemp extracts. P450-specific markers include bupropion 6-hydroxylation (CYP2B11), dextromethorphan 0-demethylation (CYP2D15) and omeprazole sulfoxidation (CYP3A12). IC50 values are determined both with and without preincubation of liver microsomes with potential inhibitor to evaluate whether there is mechanism-based time-dependent inhibition.
The following parameters are assessed: (1) the rates of CBD and CBDA metabolism by dog liver microsomes and by 11 recombinant canine P450 enzymes; (2) the predicted percent contribution of each P450 to total CBD and CBDA metabolism in dog liver; and (3) IC50 values for inhibition of CYP2B11, CYP2D15 and CYP3A12 metabolism in dog liver, both with and without inhibitor preincubation.

## C=C(C)[C@@H]1CCC(C)=C[C@H]1c1c(O)cc(CCCCC)cc1O [CBD, cannabidiol]
  time-dependent inhibition (TDI): showed time-dependent inhibition (TDI)
